16 molecules from PubChem BioAssay AID296 (DTP/NCI, 2004) can be followed below.

Molecules are shown by their SMILES. Several values for one entry are separate records, joined by “and”; a condition that tells them apart may be missing. Equal values may be shown once. Results filed as inconclusive are left out.

The test relates to MX-1 breast xenograft, nude mice, tumor weight T/C. The test is described as follows: NCI In Vivo Anticancer Drug Screen. Data for tumor model Human Mammary Carcinoma MX-1 Xenograft (intrarenal inoculation) in NU/NU Swiss (nude) mice. The note with it: endpoint: mean tumor weight change, higher = larger tumour. The essentials:
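Activity is given as a ratio, with each measurement in the compound-treated arm divided by the matching measurement in vehicle-dosed controls. Tumour size or survival serves as the measured parameter.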
In general terms: A xenograft is tissue or cells of one species grown in another, often human tumour cells in immunodeficient mice.

Setting [1] is: dose: 600.0 mg/kg/injection, schedule: Q04DX003 (sc), vehicle: saline with Tween-80.

Regarding `O=CN(SSN(C=O)C1CCCCC1)C1CCCCC1`, the T/C is 69 % of control (dose: 50.0 mg/kg/injection, schedule: Q01DX010 (sc), vehicle: saline with Tween-80); 83 % of control (dose: 100.0 mg/kg/injection, schedule: Q01DX010 (sc), vehicle: saline with Tween-80); 53 % of control (dose: 200.0 mg/kg/injection, schedule: Q01DX010 (sc), vehicle: saline with Tween-80); 34 % of control (dose: 400.0 mg/kg/injection, schedule: Q01DX010 (sc), vehicle: saline with Tween-80).

For the molecule `COC1=CCC23C(=O)C=CC(=O)C2(C1)C(=O)c1ccccc1C3=O` (stereo not given), under “dose: 37.5 mg/kg/injection, schedule: Q04DX003 (ip), vehicle: saline with Tween-80”, the T/C is 109 % of control.

Regarding `C[Si](C)(C)n1nnn(-c2ccccc2)c1=O`, the T/C is 90 % of control (dose: 75.0 mg/kg/injection, schedule: Q04DX003 (sc), vehicle: saline with Tween-80); 71 % of control (dose: 150.0 mg/kg/injection, schedule: Q04DX003 (sc), vehicle: saline with Tween-80); 91 % of control under setting [1].

Take `O.O.[NH-]C1CCCCC1[NH-].[Pt+2]` (stereo not given): the T/C runs as follows: (dose: 2.5 mg/kg/injection, schedule: Q01DX010 (sc), vehicle: dextrose) 111 % of control; (dose: 5.0 mg/kg/injection, schedule: Q01DX010 (sc), vehicle: dextrose) 76 % of control and 78 % of control; (dose: 10.0 mg/kg/injection, schedule: Q01DX010 (sc), vehicle: dextrose) 55 % of control and 60 % of control; (dose: 20.0 mg/kg/injection, schedule: Q01DX010 (sc), vehicle: dextrose) 26 % of control and 36 % of control.

With `[N-]=[N+]=CC(=O)CCC(N)C(=O)O` (stereo not given), the T/C runs as follows: (dose: 0.1 mg/kg/injection, schedule: Q01DX010 (sc), vehicle: saline) -45 % of control; (dose: 0.1 mg/kg/injection, schedule: Q02DX005 (sc), vehicle: saline) 3 % of control; (dose: 0.2 mg/kg/injection, schedule: Q01DX010 (sc), vehicle: saline) -64 % of control; (dose: 0.2 mg/kg/injection, schedule: Q02DX005 (sc), vehicle: saline) -13 % of control; (dose: 0.4 mg/kg/injection, schedule: Q01DX010 (sc), vehicle: saline) -80 % of control; (dose: 0.8 mg/kg/injection, schedule: Q02DX005 (sc), vehicle: saline) -90 % of control. The T/C runs as follows: (dose: 1.6 mg/kg/injection, schedule: Q02DX005 (sc), vehicle: saline) -92 % of control; (dose: 3.12 mg/kg/injection, schedule: Q04DX003 (sc), vehicle: DMSO) 11 % of control; (dose: 3.13 mg/kg/injection, schedule: Q04DX003 (sc), vehicle: saline) 1 % of control; (dose: 3.2 mg/kg/injection, schedule: Q02DX005 (sc), vehicle: saline) -100 % of control; (dose: 6.25 mg/kg/injection, schedule: Q04DX003 (sc), vehicle: DMSO) 15 % of control; (dose: 6.25 mg/kg/injection, schedule: Q04DX003 (sc), vehicle: saline) 1 % of control. In addition, the T/C is 18 % of control (dose: 12.5 mg/kg/injection, schedule: Q04DX003 (sc), vehicle: DMSO); 1 % of control (dose: 12.5 mg/kg/injection, schedule: Q04DX003 (sc), vehicle: saline); 7 % of control (dose: 25.0 mg/kg/injection, schedule: Q04DX003 (sc), vehicle: DMSO); -7 % of control (dose: 25.0 mg/kg/injection, schedule: Q04DX003 (sc), vehicle: saline).

With `CN(C)CC(Cl)CCl` (stereo not given), the T/C by setting is: (dose: 75.0 mg/kg/injection, schedule: Q04DX003 (sc), vehicle: saline) 50 % of control; (dose: 150.0 mg/kg/injection, schedule: Q04DX003 (sc), vehicle: saline) 85 % of control; (dose: 300.0 mg/kg/injection, schedule: Q04DX003 (sc), vehicle: saline) 28 % of control.

Turning to `CCC/C=C/C=C/C(=O)OC1/C(=C/C(=O)OC)CC2CC(C(C)O)OC(=O)CC(O)CC3CC(OC(C)=O)C(C)(C)C(O)(CC4C/C(=C/C(=O)OC)CC(/C=C/C(C)(C)C1(O)O2)O4)O3` (stereo not given), the T/C (dose: 0.25 mg/kg/injection, schedule: Q04DX003 (sc), vehicle: saline + alcohol) was 103 % of control; the T/C (dose: 0.5 mg/kg/injection, schedule: Q04DX003 (sc), vehicle: saline + alcohol) was 111 % of control; the T/C (dose: 1.0 mg/kg/injection, schedule: Q04DX003 (sc), vehicle: saline + alcohol) is 70 % of control; the T/C (dose: 2.0 mg/kg/injection, schedule: Q04DX003 (sc), vehicle: saline + alcohol) was 60 % of control.

Take `COc1cc2cc[n+](C)c(Cc3ccccc3)c2cc1OC`: the T/C is, setting by setting: (dose: 18.75 mg/kg/injection, schedule: Q04DX003 (sc), vehicle: Klucel (hydroxypropylcellulose) (HPC)) 90 % of control; (dose: 37.5 mg/kg/injection, schedule: Q04DX003 (sc), vehicle: Klucel (hydroxypropylcellulose) (HPC)) 115 % of control; (dose: 75.0 mg/kg/injection, schedule: Q04DX003 (sc), vehicle: Klucel (hydroxypropylcellulose) (HPC)) 58 % of control.

Consider `CNC(=O)ON(C(C)=O)C(=O)NC`, for which the T/C is 69 % of control (dose: 50.0 mg/kg/injection, schedule: Q04DX003 (sc), vehicle: saline); 108 % of control (dose: 100.0 mg/kg/injection, schedule: Q01DX010 (sc), vehicle: water); 67 % of control (dose: 150.0 mg/kg/injection, schedule: Q01DX010 (sc), vehicle: water); 85 % of control (dose: 200.0 mg/kg/injection, schedule: Q01DX010 (sc), vehicle: water); 16 % of control (dose: 200.0 mg/kg/injection, schedule: Q04DX003 (sc), vehicle: saline).

Turning to `Cc1c(N)nc(C(CC(N)=O)NCC(N)C(N)=O)nc1C(=O)NC(C(=O)NC(C)C(O)C(C)C(=O)NC(C(=O)NCCc1nc(-c2nc(C(=O)NCCCNC(C)c3ccccc3)cs2)cs1)C(C)O)C(OC1OC(CO)C(O)C(O)C1OC1OC(CO)C(O)C(OC(N)=O)C1O)c1cnc[nH]1` (stereo not given), the T/C runs as follows: (dose: 2.0 mg/kg/injection, schedule: Q01DX010 (sc), vehicle: saline) 114 % of control; (dose: 8.0 mg/kg/injection, schedule: Q01DX010 (sc), vehicle: saline) 92 % of control; (dose: 16.0 mg/kg/injection, schedule: Q01DX010 (sc), vehicle: saline) 89 % of control.

In the case of `N=[N+]=CC(=O)OCC(N)C(=O)O` (stereo not given), the T/C reads like this: (dose: 3.13 mg/kg/injection, schedule: Q01DX010 (sc), vehicle: saline) -57 % of control and -53 % of control; (dose: 6.25 mg/kg/injection, schedule: Q01DX010 (sc), vehicle: saline) -69 % of control and -54 % of control; (dose: 12.5 mg/kg/injection, schedule: Q01DX010 (sc), vehicle: saline) -81 % of control and -71 % of control; (dose: 25.0 mg/kg/injection, schedule: Q01DX010 (sc), vehicle: saline) -80 % of control.

On to `Nc1nc(=O)n(C2OC(CO)C(O)C2O)cc1F` (stereo not given), for which the T/C was 103 % of control (dose: 300.0 mg/kg/injection, schedule: Q04DX003 (sc), vehicle: saline with Tween-80); 77 % of control under setting [1]; 81 % of control (dose: 1200.0 mg/kg/injection, schedule: Q04DX003 (sc), vehicle: saline with Tween-80); 32 % of control (dose: 2400.0 mg/kg/injection, schedule: Q04DX003 (sc), vehicle: saline with Tween-80).

As for `COc1cc(OC)c(OC)cc1/C=C\c1ccnc2ccccc12`, the T/C runs as follows: (dose: 300.0 mg/kg/injection, schedule: Q04DX003 (sc), vehicle: Klucel (hydroxypropylcellulose) (HPC)) 85 % of control; (dose: 600.0 mg/kg/injection, schedule: Q04DX003 (sc), vehicle: Klucel (hydroxypropylcellulose) (HPC)) 110 % of control; (dose: 1200.0 mg/kg/injection, schedule: Q04DX003 (sc), vehicle: Klucel (hydroxypropylcellulose) (HPC)) 99 % of control.

For `C[CH2][Sn]([CH2]C)([CH2]C(=O)OC)[CH2]C(=O)OC`, the T/C runs as follows: (dose: 12.5 mg/kg/injection, schedule: Q04DX003 (sc), vehicle: saline with Tween-80) 79 % of control; (dose: 25.0 mg/kg/injection, schedule: Q04DX003 (sc), vehicle: saline with Tween-80) 116 % of control.

As for `COC1/C=C\C=C(/C)C(=O)NC2=CC(=O)C=C(C2=O)C(OC)C(C)CC(OC)C(OC)C(C)/C=C(/C)C1OC(N)=O` (stereo not given), the T/C by setting is: (dose: 2.25 mg/kg/injection, schedule: Q04DX003 (sc), vehicle: Klucel (hydroxypropylcellulose) (HPC)) 77 % of control; (dose: 4.5 mg/kg/injection, schedule: Q04DX003 (sc), vehicle: Klucel (hydroxypropylcellulose) (HPC)) 63 % of control; (dose: 9.0 mg/kg/injection, schedule: Q04DX003 (sc), vehicle: Klucel (hydroxypropylcellulose) (HPC)) 52 % of control.

As to `O=c1[nH]c(=O)n([C@H]2CCCO2)cc1F`, the T/C by setting is: (dose: 100.0 mg/kg/injection, schedule: Q01DX010 (sc), vehicle: Klucel (hydroxypropylcellulose) (HPC)) 112 % of control; (dose: 200.0 mg/kg/injection, schedule: Q01DX010 (sc), vehicle: Klucel (hydroxypropylcellulose) (HPC)) 97 % of control; (dose: 800.0 mg/kg/injection, schedule: Q01DX010 (sc), vehicle: Klucel (hydroxypropylcellulose) (HPC)) 123 % of control.
